Results reported in patent publication US11440884B2, “Compounds, salts thereof and methods for treatment of diseases” (ACADIA PHARMACEUTICALS INC., priority 2017, dated 2022).
Where two headings read alike, the source gives them in different places.

Target: 5-HT2A receptor (Homo sapiens (Human), UniProt P28223)
Test: Receptor Selection and Amplification (R-SAT) functional antagonist assay;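 also: Read-out is β-galactosidase marker gene activity with ONPG substrate, measured after five days of growth in 96-well plates holding the test compound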
[1] = R-SAT, transfected NIH3T3 cells, guidance: high affinity pKi≥8.4, moderate affinity pKi≥7.7

Chain of 5-HT2A receptor (P28223 whole entry): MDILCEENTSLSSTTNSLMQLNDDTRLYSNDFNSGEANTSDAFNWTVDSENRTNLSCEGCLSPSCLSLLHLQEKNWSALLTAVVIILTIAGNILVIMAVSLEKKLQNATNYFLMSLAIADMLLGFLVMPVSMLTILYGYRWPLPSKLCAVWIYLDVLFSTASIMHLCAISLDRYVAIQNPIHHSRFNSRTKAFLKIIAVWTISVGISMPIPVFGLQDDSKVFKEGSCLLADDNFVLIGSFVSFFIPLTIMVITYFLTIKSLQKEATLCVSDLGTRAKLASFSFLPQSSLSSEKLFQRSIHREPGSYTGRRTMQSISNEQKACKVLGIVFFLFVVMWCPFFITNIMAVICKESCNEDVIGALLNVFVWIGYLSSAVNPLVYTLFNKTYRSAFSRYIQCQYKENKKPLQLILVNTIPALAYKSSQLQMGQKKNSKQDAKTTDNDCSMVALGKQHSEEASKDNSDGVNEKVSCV
Description: Receptor Selection and Amplification (R-SAT) Assays. […] For large-scale transfections, cells were transfected for 12-16 h, then trypsinized and frozen in DMSO. Frozen cells were later thawed, plated at 10,000-40,000 cells per well of a 96 well plate that contained a compound according to Formula (I). […] With both methods, cells were then grown in a humidified atmosphere with 5% ambient CO2 for five days. Media was then removed from the plates and marker gene activity was measured by the addition of the b-galactosidase substrate o-nitrophenyl b-D-galactopyranoside (ONPG, in PBS with 5% NP-40). […] All data were analyzed using the computer program XLFit (IDBSm).

| 5-HT2a pKi [1] | SMILES | further results |
| --- | --- | --- |
| 9.1 | CC(C)Oc1ccc(COC(=O)N(Cc2c(F)cc(Cl)cc2F)C2CCN(C)CC2)cc1 [Compound 74] | – |
| – | CC(C)Oc1ccc(COC(=O)N(Cc2ccc(C(F)(F)F)cc2Cl)C2CCN(C)CC2)cc1.O=C(O)C(F)(F)F [Compound 78] | 5-HT2a pKi: 7.6 |
| 7.8 | CC(C)Oc1ccc(COC(=O)N(Cc2cc(F)c(F)cc2F)C2CCN(C)CC2)cc1 [Compound 80] | – |
| – | CC(C)Oc1ccc(COC(=O)N(Cc2ccc(F)cc2C(F)(F)F)C2CCN(C)CC2)cc1 [Compound 81] | Ki: 2 mM |
| 7.8 | CC(C)COc1ccc(COC(=O)N(Cc2ccc(F)cc2O)C2CCN(C)CC2)cc1 [Compound 82, [4-(2-methylpropoxy)phenyl]methyl N-[(4-fluoro-2-hydroxyphenyl)methyl]-N-(1-methylpiperidin-4-yl)carbamate] | – |

| SMILES | 5-HT2a pKi [1] | further results |
| --- | --- | --- |
| COc1cc(CN(C(=O)OCc2ccc(OC(C)C)cc2)C2CCN(C)CC2)ccc1Cl.O=C(O)C(F)(F)F [Compound 75] | 6.8 | – |
| CC(C)Oc1ccc(COC(=O)N(Cc2ccc(C(F)(F)F)cc2F)C2CCN(C)CC2)cc1.O=C(O)C(F)(F)F [Compound 79] | 8.4 | – |
